In PubChem BioAssay AID493138 (Sanford-Burnham Center for Chemical Genomics, 2011):
The source made the active and inactive calls. The rule behind the calls is not given here.

Biological target: Alkaline phosphatase, placental type (Homo sapiens) (UniProt P05187)
Assay: PLAP enzyme inhibition by analogs, SAR follow-up, selectivity assay for human IAP inhibitor project, biochemical, human PLAP isozyme (AID 493138)
Conditions: purified placental alkaline phosphatase, enzyme activity

| IC50 | Compound |
| --- | --- |
| > 100 µM (inactive) | COC(=O)/C=C1/S/C(=N/NC(=O)c2ccccc2)NC1=O |
| > 100 µM (inactive) | CCOc1cc(C=NNC(=S)NC2CCCCC2)ccc1O |
| > 100 µM (inactive) | COc1ccc(C=Nn2c(=S)n(C)c3ccccc32)cc1OC |
| > 100 µM (inactive) | COC(=O)/C=C1/S/C(=N/NC(=O)c2ccccc2OC)NC1=O |
| > 100 µM (inactive) | COc1cc(/C=N/N=C2\NC(=O)C(CC(=O)O)S2)cc(OC)c1OC (stereo unspecified) |
| > 100 µM (inactive) | CCOc1cc(/C=N/N=C2\NC(=O)C(CC(=O)O)S2)ccc1O (stereo unspecified) |
| > 100 µM (inactive) | COc1cc(C=NN=C2SC(CC(=O)O)C(=O)N2c2ccc(O)cc2)ccc1O (stereo unspecified) |
| > 100 µM (inactive) | CCc1ccccc1Nc1nc(-c2ccc(O)c(O)c2)cs1 |
| > 100 µM (inactive) | O=[N+]([O-])c1ccccc1NC(=S)N/N=C/c1ccc(O)c(O)c1O |
| > 100 µM (inactive) | Cc1ccc(Nc2nc(-c3ccc(O)c(O)c3)cs2)cc1F |
| > 100 µM (inactive) | CN(C)S(=O)(=O)c1cccc(NC(=S)NN=Cc2ccc(O)c(O)c2O)c1 |
| > 100 µM (inactive) | N#CCCn1cc(/C=N/N=C2/NC(=O)C(CC(=O)O)S2)c(-c2ccc(F)cc2)n1 (stereo unspecified) |
| > 100 µM (inactive) | COc1cc(/C=N/N=C2/SCC(=O)N2c2ccc(O)cc2)ccc1O |
| > 100 µM (inactive) | COc1ccc(Cl)cc1Nc1nc(-c2ccc(O)c(O)c2)cs1 |
| > 100 µM (inactive) | COc1cc(C=NNC(=S)Nc2cccc(C(=O)O)c2)ccc1O |
| > 100 µM (inactive) | Cc1cccc(Nc2nc(-c3ccc(O)c(C(N)=O)c3)cs2)c1 |
| > 100 µM (inactive) | O=C(O)CC1S/C(=N/N=C/c2ccco2)NC1=O (stereo unspecified) |
| > 100 µM (inactive) | COC(=O)/C=C1/S/C(=N/N=Cc2ccc(N(C)C)cc2)NC1=O |
| > 100 µM (inactive) | COc1ccc(/C=N/N=C2\NC(=O)C(CC(=O)O)S2)c(OC)c1 (stereo unspecified) |
| > 100 µM (inactive) | COc1ccc(C=NNC(=S)Nc2ccccc2[N+](=O)[O-])cc1O |

| IC50 | Compound |
| --- | --- |
| > 100 µM (inactive) | CCOc1ccc(Nc2nc(-c3ccc(O)c(O)c3)cs2)cc1 |
| > 100 µM (inactive) | COc1ccc(/C=N/N=C2/NC(=O)C(CC(=O)O)S2)cc1OC (stereo unspecified) |
| > 100 µM (inactive) | COC(=O)/C=C1\S/C(=N/N=C/CC(=O)OC)NC1=O |
| > 100 µM (inactive) | COC(=O)/C=C1/S/C(=N/NC(=O)c2ccccc2C)NC1=O |
| > 100 µM (inactive) | COc1cc(C=NNC(=S)Nc2cccc(S(=O)(=O)N(C)C)c2)ccc1O |
| > 100 µM (inactive) | O=S(=O)(c1ccc(NC(=S)N/N=C/c2ccc(O)c(O)c2O)cc1)N1CCOCC1 |
| > 100 µM (inactive) | COC(=O)/C=C1/S/C(=N/NC(=O)c2ccc(OC)cc2)NC1=O |
| > 100 µM (inactive) | O=S(=O)(c1ccc(NC(=S)N/N=C/c2ccc(O)c(O)c2)cc1)N1CCOCC1 |
| > 100 µM (inactive) | COc1cc(C=NNC(=S)Nc2cccc(S(=O)(=O)N(C)C)c2)cc(OC)c1O |
| 8.24 µM | O=[N+]([O-])c1ccccc1NC(=S)NN=Cc1ccc(O)c(O)c1 |
| > 100 µM (inactive) | COC(=O)C/C=N/N=C1\NC(=O)/C(=C/C(=O)O)S1 |
| > 100 µM (inactive) | Cc1cccc(C)c1NC(=S)N/N=C/c1ccc(O)c(O)c1O |
| > 100 µM (inactive) | COc1ccc(C=NN=C2SC(CC(=O)O)C(=O)N2c2ccc(O)cc2)cc1 (stereo unspecified) |
| > 100 µM (inactive) | CC(C)(C)c1ccc(/C=N/N=C2\NC(=O)C(CC(=O)O)S2)cc1 (stereo unspecified) |
| > 100 µM (inactive) | Cc1ccc(Nc2nc(-c3ccc(O)c(C(N)=O)c3)cs2)cc1 |
| > 100 µM (inactive) | Cc1ccc(-c2ccc(/C=N/N=C3\NC(=O)C(CC(=O)O)S3)o2)c([N+](=O)[O-])c1 (stereo unspecified) |
| > 100 µM (inactive) | COC(=O)/C=C1\S/C(=N/N=C/c2ccc(Cl)cc2)NC1=O |
| > 100 µM (inactive) | COC(=O)/C=C1\SC(N=Nc2c(O)[nH]c3ccccc23)=NC1=O |
| > 100 µM (inactive) | COC(=O)/C=C1/S/C(=N/NC(=O)c2ccc(Cl)cc2Cl)NC1=O |
| > 100 µM (inactive) | CCOc1cc(C=N/N=C2/NC(=O)C(CC(=O)O)S2)ccc1OCc1ccccc1Cl (stereo unspecified) |

The remaining lines, values behind:

| Compound | IC50 |
| --- | --- |
| COc1ccc(-c2csc(Nc3cccc4ccccc34)n2)cc1F | > 100 µM (inactive) |
| Oc1ccc(-c2csc(Nc3ccccc3)n2)c(O)c1 | > 100 µM (inactive) |
| CC(=NNC(=S)Nc1ccccc1)c1ccc2c(c1)OCO2 | > 100 µM (inactive) |
| Oc1ccc(-c2csc(Nc3cccc4ccccc34)n2)cc1O | > 100 µM (inactive) |
| S=C(NCCC(c1ccccc1)c1ccccc1)Nc1ccc(Cl)cc1Cl | > 100 µM (inactive) |
| NS(=O)(=O)c1ccc(Nc2nc(-c3ccc(O)c(O)c3)cs2)cc1 | 33.8 µM |
| Cc1ccc2sc(NNC(=O)c3ccc4c(c3)OCCO4)nc2c1C | > 100 µM (inactive) |
| NS(=O)(=O)c1ccc(Nc2nc(-c3ccc(O)cc3O)cs2)cc1 | > 100 µM (inactive) |
| Cc1ccc2nc(NNC(=O)c3ccc4c(c3)OCCO4)sc2c1 | > 100 µM (inactive) |
| FC(F)(F)c1cccc(NC(=S)NCCC(c2ccccc2)c2ccccc2)c1 | > 100 µM (inactive) |
| COc1cccc(Nc2nc(-c3ccc(O)cc3)cs2)c1 | > 100 µM (inactive) |
| Cc1c(Cl)cccc1Nc1nc(-c2ccc(O)c(O)c2)cs1 | > 100 µM (inactive) |
| Cc1ccc(Cl)cc1Nc1nc(-c2ccc(O)c(O)c2)cs1 | > 100 µM (inactive) |
| COc1cc([N+](=O)[O-])ccc1NC(=S)NNC(=O)c1ccc2c(c1)OCO2 | > 100 µM (inactive) |
| Cc1ccc(Nc2nc(-c3ccc(O)c(O)c3)cs2)cc1 | > 100 µM (inactive) |
| Cc1ccc(C)c(Nc2nc(-c3ccc(O)cc3O)cs2)c1 | > 100 µM (inactive) |
| COc1ccc(NC(=S)NCCC(c2ccccc2)c2ccccc2)cc1 | > 100 µM (inactive) |
| Cc1ccc(Nc2nc(-c3ccc(O)cc3O)cs2)cc1 | > 100 µM (inactive) |

| Compound | IC50 |
| --- | --- |
| Cc1ccc(Nc2nc(-c3ccc(O)cc3O)cs2)cc1C | > 100 µM (inactive) |
| Oc1ccc(Nc2nc(-c3ccc(O)c(O)c3)cs2)cc1 | > 100 µM (inactive) |
| Cc1cccc(NC(=S)NNC(=O)c2ccc3c(c2)OCO3)c1 | > 100 µM (inactive) |
| Cn1c(=S)n(N=Cc2ccc3c(c2)OCO3)c2ccccc21 | > 100 µM (inactive) |
| COc1cc([N+](=O)[O-])ccc1NC(=S)NCCC(c1ccccc1)c1ccccc1 | > 100 µM (inactive) |
| COc1ccc(-c2csc(Nc3cccc4ccccc34)n2)cc1 | > 100 µM (inactive) |
| O=S(=O)(Nc1ncccn1)c1ccc(NC(=S)NCCC(c2ccccc2)c2ccccc2)cc1 | > 100 µM (inactive) |
| COc1cc(C(=O)NNC(=S)Nc2ccc(S(N)(=O)=O)cc2)cc(OC)c1OC | > 100 µM (inactive) |
| Oc1ccc(-c2csc(Nc3ccc(F)cc3)n2)cc1O | > 100 µM (inactive) |
| Cc1cccc2sc(NNC(=O)c3ccc4c(c3)OCCO4)nc12 | > 100 µM (inactive) |
| O=[N+]([O-])c1ccc(NC(=S)NCCC(c2ccccc2)c2ccccc2)cc1 | > 100 µM (inactive) |
| Cc1cc(C)cc(Nc2nc(-c3ccc(O)cc3O)cs2)c1 | > 100 µM (inactive) |
| Cc1cc(=O)oc2cc(NC(=S)NCCC(c3ccccc3)c3ccccc3)ccc12 | > 100 µM (inactive) |
| Cc1cccc(Nc2nc(-c3ccc(O)c(O)c3)cs2)c1 | > 100 µM (inactive) |
| COc1ccc(C(=O)NNC(=S)NC2CCCCC2)cc1OC | > 100 µM (inactive) |
| Cc1cccc(NC(=S)NN=Cc2ccc3c(c2)OCO3)c1 | > 100 µM (inactive) |
| CCN(CC)S(=O)(=O)c1ccc(-c2csc(=Nc3cccc4ccccc34)n2C)cc1 | > 100 µM (inactive) |
| Cc1ccc(Nc2nc(-c3ccc(O)cc3O)cs2)cc1F | > 100 µM (inactive) |
